Molecules are shown by their SMILES.

What is called AUC is concentration integrated over time. Lower therefore signals less exposure. One may read the Tmax as the time from dosing to the highest level. Usually half-life stands for the time in which the quantity being followed falls by half. What is called IC50 is the concentration at which inhibition is half-maximal. As a reminder, the Ki is the dissociation constant of the complex between target and ligand, obtained from inhibition or displacement. For orientation: bioavailability means the share of a dose that reaches the circulation, judged against a reference dose that is usually intravenous. The low end stands for poor availability, the high end for good availability. Broadly, the AUC(0-t) is exposure summed from dosing to a finite time, without extrapolation to infinity.

A short description of series [1]: Volume of distribution at steady state in Sprague-Dawley rat at 1 mg/kg, iv by LC-MS/MS analysis. The note with it: in vivo, read-out: Vdss. The class given is ADME, organism-based.
Series [2] in a line: Oral bioavailability in Sprague-Dawley rat at 5 mg/kg by LC-MS/MS analysis. The note with it: in vivo. The class given is ADME, organism-based.
The nature of series [3]: AUC (0 to 7 hrs) in Sprague-Dawley rat at 1 mg/kg, iv by LC-MS/MS analysis. The note with it: in vivo. The class given is ADME, organism-based. Set-up: dose 1 mg/kg, time < 7 hr, route intravenous.
Series [4] can be described thus: Clearance in Sprague-Dawley rat at 1 mg/kg, iv by LC-MS/MS analysis. The class given is ADME, organism-based. To be noted: in vivo.
Series [5] in a line: AUC (0 to 7 hrs) in Sprague-Dawley rat at 5 mg/kg, po by LC-MS/MS analysis. The class given is ADME, organism-based. Set-up: dose 5 mg/kg, time < 7 hr, route oral. The note with it: in vivo.
A short description of series [6]: Tmax in Sprague-Dawley rat at 5 mg/kg, po by LC-MS/MS analysis. The class given is ADME, organism-based. To be noted: in vivo.
Series [7] is described as follows: Half life in Sprague-Dawley rat at 1 mg/kg, iv by LC-MS/MS analysis. The note with it: in vivo. The class given is ADME, organism-based.
A short description of series [8]: Metabolic stability in rat microsomes assessed as parent compound remaining after 30 mins. The class given is ADME, Microsome. To be noted: read-out: Stability.
The nature of series [9]: Clearance in rat microsomes. To be noted: in vitro.
Series [10] is described as follows: Metabolic stability in human microsomes assessed as parent compound remaining after 30 mins. The class given is ADME, Microsome. The note with it: read-out: Stability.
A short description of series [11]: Metabolic stability in human microsomes assessed as parent compound remaining after 5 mins. The class given is ADME, Microsome. The note with it: read-out: Stability.
The nature of series [12]: Metabolic stability in human microsomes assessed as parent compound remaining after 15 mins. The class given is ADME, Microsome. The note with it: read-out: Stability.
Series [13] in a line: Metabolic stability in rat microsomes assessed as parent compound remaining after 15 mins. The class given is ADME, Microsome. To be noted: read-out: Stability.
Series [14] is described as follows: Metabolic stability in rat microsomes assessed as parent compound remaining after 5 mins. To be noted: read-out: Stability. The class given is ADME, Microsome.
A short description of series [15]: Metabolic stability in rat microsomes assessed as parent compound remaining after 45 mins. The class given is ADME, Microsome. The note with it: read-out: Stability.
Series [16] is described as follows: Half life in rat microsomes. To be noted: in vitro.
The nature of series [17]: Metabolic stability in human microsomes assessed as parent compound remaining after 0 mins. To be noted: read-out: Stability. The class given is ADME, Microsome.
Series [18] in a line: Clearance in human. The class given is ADME.
The nature of series [19]: Metabolic stability in human microsomes assessed as parent compound remaining after 45 mins. The class given is ADME, Microsome. The note with it: read-out: Stability.
A short description of series [20]: Metabolic stability in rat microsomes assessed as parent compound remaining after 0 mins. The class given is ADME, Microsome. To be noted: read-out: Stability.
Series [21] deals with CDK2/Cyclin A2 (Homo sapiens, UniProt P24941). Description: Inhibition of CDK2/CyclinA (unknown origin) assessed as reduction in TAMRA tagged peptide substrate phosphorylation by fluorescence polarization assay. The class given is protein-complex assay.
Series [22] addresses Cyclin-dependent kinase 1 (Homo sapiens, UniProt P06493).
Description: Inhibition of CDK1 (unknown origin)
In series [23] the target is Calcium/calmodulin-dependent protein kinase type 1 (Homo sapiens, UniProt Q14012). Description: Inhibition of wild-type human full length CAMK1A (M1 to L370 residues) expressed in bacterial expression system assessed as residual activity at 50 nM by Kinomescan method relative to control.
Sequence of Calcium/calmodulin-dependent protein kinase type 1 (Q14012 whole entry, the tested form may be a part): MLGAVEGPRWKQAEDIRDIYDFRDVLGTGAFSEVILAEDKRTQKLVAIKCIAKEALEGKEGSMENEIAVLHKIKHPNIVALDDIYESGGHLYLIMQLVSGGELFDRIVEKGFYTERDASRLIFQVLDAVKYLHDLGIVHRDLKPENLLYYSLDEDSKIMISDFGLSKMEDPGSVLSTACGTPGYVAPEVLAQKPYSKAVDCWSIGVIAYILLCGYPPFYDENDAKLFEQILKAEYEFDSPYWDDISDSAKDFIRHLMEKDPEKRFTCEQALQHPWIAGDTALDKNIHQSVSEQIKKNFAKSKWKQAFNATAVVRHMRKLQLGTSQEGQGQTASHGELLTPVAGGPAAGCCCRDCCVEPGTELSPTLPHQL
Series [24] in a line: Protein binding in human plasma. The class given is ADME, cell-free. To be noted: read-out: PPB (converted).
Series [25] is described as follows: Tmax in human. The class given is ADME.
Series [26] deals with Homeodomain-interacting protein kinase 1 (Homo sapiens, UniProt Q86Z02). Description: Inhibition of wild-type human partial length HIPK1 (M146 to I555 residues) expressed in mammalian expression system assessed as residual activity at 50 nM by Kinomescan method relative to control.
Sequence of Homeodomain-interacting protein kinase 1 (Q86Z02 whole entry, the tested form may be a part): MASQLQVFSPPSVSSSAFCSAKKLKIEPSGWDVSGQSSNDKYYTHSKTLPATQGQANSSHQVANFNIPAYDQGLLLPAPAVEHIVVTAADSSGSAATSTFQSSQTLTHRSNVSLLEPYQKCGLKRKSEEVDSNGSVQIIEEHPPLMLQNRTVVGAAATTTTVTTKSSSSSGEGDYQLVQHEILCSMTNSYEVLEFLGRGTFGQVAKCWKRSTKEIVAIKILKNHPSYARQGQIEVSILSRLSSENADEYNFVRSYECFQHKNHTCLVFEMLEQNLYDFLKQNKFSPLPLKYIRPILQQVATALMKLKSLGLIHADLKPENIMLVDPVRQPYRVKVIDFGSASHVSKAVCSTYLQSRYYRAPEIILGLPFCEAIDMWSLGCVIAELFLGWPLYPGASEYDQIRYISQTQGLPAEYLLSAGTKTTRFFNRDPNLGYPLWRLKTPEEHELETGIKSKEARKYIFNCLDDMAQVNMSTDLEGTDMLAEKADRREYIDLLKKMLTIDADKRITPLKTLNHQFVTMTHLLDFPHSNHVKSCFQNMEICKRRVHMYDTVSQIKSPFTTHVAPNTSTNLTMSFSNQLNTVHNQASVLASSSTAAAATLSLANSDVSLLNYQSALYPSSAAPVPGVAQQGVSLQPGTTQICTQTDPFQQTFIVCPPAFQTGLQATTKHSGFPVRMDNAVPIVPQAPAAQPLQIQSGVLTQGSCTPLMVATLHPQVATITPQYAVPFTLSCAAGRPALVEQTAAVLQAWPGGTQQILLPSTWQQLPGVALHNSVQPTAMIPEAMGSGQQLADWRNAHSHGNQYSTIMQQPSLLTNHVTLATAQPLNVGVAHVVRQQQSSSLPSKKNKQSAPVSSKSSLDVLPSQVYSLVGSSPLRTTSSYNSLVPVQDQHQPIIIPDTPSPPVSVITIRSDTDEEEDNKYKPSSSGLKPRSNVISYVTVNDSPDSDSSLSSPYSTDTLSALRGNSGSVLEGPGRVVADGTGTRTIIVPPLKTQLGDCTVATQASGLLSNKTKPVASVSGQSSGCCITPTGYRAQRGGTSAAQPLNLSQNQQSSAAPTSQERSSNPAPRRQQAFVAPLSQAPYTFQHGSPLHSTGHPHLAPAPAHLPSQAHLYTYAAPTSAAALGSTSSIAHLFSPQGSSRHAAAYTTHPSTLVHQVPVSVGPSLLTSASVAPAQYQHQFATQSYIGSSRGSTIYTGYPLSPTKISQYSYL
A short description of series [27]: Protein binding in human plasma at 125 mg, po. The class given is ADME, cell-free. To be noted: read-out: PPB (converted).
Series [28] is described as follows: Oral bioavailability in human at 125 mg. The class given is ADME, organism-based. To be noted: in vivo.
Series [29] can be described thus: Tmax in human at 125 mg, po. The class given is ADME. To be noted: in vivo.

Sequence of Cyclin-dependent kinase 1 (P06493 whole entry, the tested form may be a part): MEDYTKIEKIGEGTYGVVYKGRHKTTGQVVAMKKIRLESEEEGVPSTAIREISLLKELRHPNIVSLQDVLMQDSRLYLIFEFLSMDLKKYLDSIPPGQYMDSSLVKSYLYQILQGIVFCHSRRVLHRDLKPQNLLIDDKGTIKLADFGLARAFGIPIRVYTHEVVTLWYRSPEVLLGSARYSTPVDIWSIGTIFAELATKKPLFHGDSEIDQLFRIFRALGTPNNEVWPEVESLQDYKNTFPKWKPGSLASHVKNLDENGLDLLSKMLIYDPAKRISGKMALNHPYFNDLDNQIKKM

For the molecule `[2H]C([2H])([2H])N(C(=O)c1cc2cnc(Nc3ccc(N4CCNCC4)cn3)nc2n1C1CCCC1)C([2H])([2H])[2H]`, the Vd in series [1] is 8.6 L/kg. The molecule further showed a F in series [2] of 55%. Moreover, the AUC in [3] (7 h) was 0.883 µM·h; in series [5] it was 5.432 µM·h. This molecule also displayed a clearance in series [4] of 37 mL/min/kg. In addition, the Tmax in series [6] turned out to be 2 h. Besides, the half-life in [7] is 3.2 h.

With `[2H]C([2H])([2H])C([2H])([2H])N1C([2H])([2H])C([2H])([2H])N(Cc2ccc(Nc3ncc(F)c(-c4cc(F)c5nc(C)n(C(C)C)c5c4)n3)nc2)C([2H])([2H])C1([2H])[2H]`, the remaining at 0.5 h was 69.9% in series [8] and 21.3% in series [10]. In addition, the clearance in series [9] was found to be 43.3 mL/min/kg; in series [18], 130 mL/min/kg. Besides, the remaining at 5 min in series [11] came out at 80.3%; in series [14], 92.2%. The remaining at 0.25 h in series [12] turned out to be 47.9%; in series [13] it was 86%. The remaining at 0.75 h was found to be 57.6% in series [15] and 9.86% in series [19]. This molecule had a half-life in [16] of 0.956 h. The remaining at 0 h in [17] and in series [20] was 100% throughout.

As to `[2H]c1nc(Nc2ncc(F)c(-c3cc(F)c4nc(C)n(C(C)C)c4c3)n2)c([2H])c([2H])c1CN1CCN(C([2H])([2H])C([2H])([2H])[2H])CC1`, the remaining at 0.5 h is 65.9% in series [8] and 16.4% in [10]. The clearance turned out to be 52.7 mL/min/kg in series [9] and 155 mL/min/kg in series [18]. In addition, the values for the remaining at 5 min in series [11] and in series [14] were 79.4% and 92.7%, respectively. Besides, the remaining at 0.25 h in [12] is 43.3%; in series [13], 83%. For the same molecule, the values for the remaining at 0.75 h in [15] and in [19] were 51.3% and 6.48%, respectively. Besides, in series [16], the half-life was determined as 0.785 h. The remaining at 0 h in series [17] and in [20] was 100% in each case.

For the molecule `[2H]C([2H])([2H])C([2H])([2H])N1CCN(Cc2ccc(Nc3ncc(F)c(-c4cc(F)c5nc(C)n(C(C)C)c5c4)n3)nc2)CC1`, the remaining at 0.5 h is 66.9% in [8] and 16% in series [10]. The figures for the clearance in series [9] and in series [18] were 52.8 mL/min/kg and 156 mL/min/kg, respectively. For the same molecule, the remaining at 5 min was 77.7% in [11] and 93.8% in series [14]. The remaining at 0.25 h in series [12] was 42.4%; in series [13], 83.4%. Moreover, the remaining at 0.75 h in series [15] worked out at 51.3%; in series [19], 6.21%. In [16], this molecule returned a half-life of 0.784 h. Further, the remaining at 0 h in series [17] and in series [20] was 100% each time.

In the case of `CN(C)C(=O)c1cc2cnc(Nc3ccc(N4CCNCC4)cc3)nc2n1C1CCCC1`, the IC50 in series [21] was more than 1400 nM; in series [22], more than 1600 nM.

Turning to `CCN1CCN(Cc2ccc(Nc3ncc(F)c(-c4cc(F)c5nc(C)n(C(C)C)c5c4)n3)nc2)CC1` [ABEMACICLIB], the Ki in series [23] and in series [26] was less than 10 nM in each case. The remaining at 0.5 h in series [8] came to 61.6%; in series [10] it was 13%. Also, the values for the clearance in [9] and in series [18] were 62.9 mL/min/kg and 172 mL/min/kg, respectively. Also, the figures for the remaining at 5 min in series [11] and in [14] were 76.1% and 94.1%, respectively. Also, in series [24], the fraction unbound is 0.04. Also, the remaining at 0.25 h in series [12] was found to be 38.9%; in series [13], 81%. Further, the Tmax in series [25] lay within 4 to 24 h. The remaining at 0.75 h amounted to 45.6% in series [15] and 4.76% in series [19]. In [16], this molecule had a half-life of 0.658 h. The remaining at 0 h in [17] and in [20] was 100% in each case.

On to `CC(=O)c1c(C)c2cnc(Nc3ccc(N4CCNCC4)cn3)nc2n(C2CCCC2)c1=O` [PALBOCICLIB], for which the fraction unbound in [27] is 0.15. Besides, the bioavailability in series [28] is 46%. Moreover, the Tmax in series [29] is 6 to 12 h.

For `CN(C)C(=O)c1cc2cnc(Nc3ccc(N4CCNCC4)cn3)nc2n1C1CCCC1` [RIBOCICLIB], the fraction unbound in series [24] was 0.3. In addition, the Tmax is 1 to 4 h in series [25] and 1.5 h in [6]. This molecule also displayed an AUC(0-t) at 7 h in series [3] (Sprague-Dawley) of 1.03 µM·h. In addition, the AUC in [5] turned out to be 1.618 µM·h. The half-life in series [7] is 2.3 h.
